# Results reported in patent publication US5958947A, “DNA-affinic hypoxia selective cytotoxins” (priority 1996, dated 1999).
# Values joined by “and” are separate entries in the source; they are usually repeats but may differ in a detail not shown here. Identical values can stand only once. “Also recorded” adds a separate entry of the source. Counter-ions that a name gives are not always drawn. Like-named read-outs stand apart in the source and are kept apart here.
# How the values were obtained:
# supercoiled DNA = experiment: DNA intercalation by agarose gel electrophoresis (mobility of supercoiled DNA); assay type: binding; details: electrophoretic gel, up to millimolar concentrations
# Excerpt: An agarose gel electrophoresis technique was used to determine whether THNLA-1 intercalates DNA. Compounds that strongly intercalate DNA retard DNA mobility during agarose gel electrophoresis due to unwinding and extension of the dsDNA.
# [1] = system: V79 Chinese hamster lung cells; experiment: Acute aerobic and hypoxic cytotoxicity (colony formation); assay type: cell-based; details: for IC50: V79, 1 h, hypoxia, 50% inhibition of clonogenicity; for viability at 100 µM: 3.5 hours
# Method: (§1) Samples of V79 Chinese hamster lung cells used in the following experiments were prepared as follows. V79 cells, exponentially growing as monolayer cultures in RPMI 1640 medium (Mediatech) supplemented with 10% fetal calf serum, were trypsinized, centrifuged for 5 min, harvested, then suspended in 25 ml Erlenmeyer flasks fitted with rubber caps at 5×10^5 cells/ml (5 ml). Individual flasks either were shaken (100 rpm) at 37° C. under aerobic conditions or made hypoxic by gassing with a 95% N2 (nitrogen)/5% CO2 (carbon dioxide) humidified gas mixture for 1 hour.
# (§2) To determine the fraction of surviving cells, samples were removed, diluted and plated to provide 2×10^2 to 2×10^4 cells/well on 60 mm Linbro multi-well plates (Flow Laboratories, McLean, Virginia). The plates were incubated at 37° C. for 6 days, stained with crystal violet and examined for colony formation. Colonies of 50 cells or greater were counted. Each plotted point in FIGS. 1 and 2 represent the mean of three or four replicate experiments.
# [2] = as above; assay type: cell-based, Chinese hamster; details: chinese hamster, aerobic v79 cells, aerobic, 1 hour, 37° C.; for IC50 at 1 h: V79 cells, 50% inhibition of clonogenicity
# Method: as §1, §2
# calf thymus Topo I = target: T1, calf thymus Topo I (Bos taurus, UniProt F1MN93); experiment: Topoisomerase I interaction (relaxation of supercoiled DNA); assay type: biochemical; details: for IC100: 0.5 h; for IC50: Topo I inhibition (50%)-dose, Topo I-induced relaxation of supercoiled DNA
# T1 construct: purchased TopoGEN, Inc., Columbus, Ohio; host or cells: calf thymus
# T1 sequence (F1MN93 1-767): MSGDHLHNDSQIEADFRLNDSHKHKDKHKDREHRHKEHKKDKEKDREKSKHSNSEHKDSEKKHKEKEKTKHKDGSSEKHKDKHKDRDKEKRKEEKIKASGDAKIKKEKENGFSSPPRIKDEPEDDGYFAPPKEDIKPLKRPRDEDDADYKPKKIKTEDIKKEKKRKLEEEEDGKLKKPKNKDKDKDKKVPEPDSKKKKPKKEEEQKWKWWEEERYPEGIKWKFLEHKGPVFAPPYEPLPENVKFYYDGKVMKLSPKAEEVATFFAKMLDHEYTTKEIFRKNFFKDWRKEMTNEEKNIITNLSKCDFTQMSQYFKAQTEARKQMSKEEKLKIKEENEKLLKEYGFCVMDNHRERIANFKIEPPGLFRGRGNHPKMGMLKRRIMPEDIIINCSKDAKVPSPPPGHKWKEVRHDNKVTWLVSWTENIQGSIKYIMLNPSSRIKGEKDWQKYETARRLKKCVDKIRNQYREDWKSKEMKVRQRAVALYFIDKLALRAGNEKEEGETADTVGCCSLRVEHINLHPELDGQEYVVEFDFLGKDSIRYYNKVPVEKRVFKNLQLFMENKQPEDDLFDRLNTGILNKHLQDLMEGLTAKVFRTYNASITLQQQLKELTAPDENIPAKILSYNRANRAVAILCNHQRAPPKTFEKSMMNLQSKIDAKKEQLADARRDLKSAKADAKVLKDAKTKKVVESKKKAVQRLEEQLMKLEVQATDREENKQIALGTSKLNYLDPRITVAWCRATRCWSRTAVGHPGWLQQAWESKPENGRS
# Method: In particular, a Topo I drug screening kit (TopoGEN, Inc., Columbus, Ohio) was used to assay the topoisomerase I THNLA-1 interaction. […] Camptothecin is a Topoisomerase I poison used as an anticancer drug. Camptothecin stabilizes the Topo I-DNA cleavable complex, and therefore prevents the resealing of DNA by Topo-I.
# Individual reaction mixtures were heated for 30 minutes at 37° C. on a heating block, and then 2 μl of 10% SDS - proteinase K solution was added to each reaction mixture. The resulting reaction mixtures then were heated for an additional 30 minutes at 37° C. The reaction mixtures in a loading buffer were extracted with CHCl3 prior to submarine electrophoresis on a 1% agarose gel. The DNA bands were observed visually by staining with ethidium bromide (0.5 μg/ml).
# [3] = system: V79 Chinese hamster lung cells; experiment: Radiosensitization of V79 cells; assay type: cell-based; details: for maximum SER value: hypoxic V79 cells, 100 μM for THNLA-1, non-toxic concentrations for others
# Method: as §1
# Radiosensitization studies were performed on V79 cells in a manner similar to the acute toxicity experiments, except that the survival fraction was determined after a predetermined radiation dose. […] One Gy is equal to 100 rads, wherein one rad is the quantity of ionizing radiation that results in the absorption of 100 ergs of energy per gram of irradiated material. Hypoxia was maintained throughout irradiation. […] Sensitization enhancement ratios (SER) were determined at a 10% survival level. […] The plotted points in FIGS. 3 and 4 represent the mean of 2 or 3 replicate experiments.
# human Topo II = experiment: Topoisomerase II interaction (decatenation of kinetoplast DNA); assay type: biochemical; details: up to 1 mM
# Method: A Topo II assay kit (TopoGEN, Inc., Columbus, Ohio) also was used to assay the topoisomerase II--THNLA-1 interaction. […] Individual reaction mixtures were heated for 30 minutes at 37° C. on a heating block, and then 2 μl of a 10% SDS-proteinase K solution was added to each reaction mixture. The resulting reaction mixtures then were heated for an additional 30 minutes at 37° C. After addition of a 0.1 volume of loading buffer, the reaction mixtures were extracted with CHCl3 prior to submarine electrophoresis on a 1% agarose gel containing ethidium bromide (0.5 μg/ml).
# [4] = Cricetulus griseus, V79 cells, 1 hour, 37° C.
smiles,measurement,setting,value
"O=[N+]([O-])c1nccn1CCCNc1c2c(nc3ccccc13)CCSC2 [S-THNLA-1, 10-[3-(2-nitroimidazolyl)propylamino]-3,4-dihydro-1-H-thiopyrano[4,3-b]quinoline hydrochloride]",effect on mobility of supercoiled DNA,supercoiled DNA,do not affect the mobility of supercoiled DNA
same,IC50,[1]; [4],68 µM
same,"Hypoxic selectivity (differential aerobic/hypoxic toxicity): IC50/A,1h /IC50/H,1h","[1]; V79 cells, 1 hour, 37° C.",about 9
same,IC50 at 1 h,[2],580 µM
same,IC100,calf thymus Topo I; read-out: concentration for complete inhibition of Topo I,~800 µM
same,IC50,calf thymus Topo I,~800 µM
same,formation of nicked DNA with Topo I,calf thymus Topo I; in Topo I test,some nicked DNA also was observed
same,EC (SER 1.6),"[3]; Cricetulus griseus, V79, 1 h, read-out: Hypoxic radiosensitizing potency: C1.6, concentration yielding an SER of 1.6, hypoxic V79 cells",40 to 45 µM
same,EC (SER 1.6),"[3]; Cricetulus griseus, V79, read-out: Intracellular concentration at C1.6: C1.6i, hypoxic radiosensitization, V79 cells (tables)",932 µM
same,EC (SER 1.6),"[3]; concentration yielding an SER of 1.6, hypoxic V79 cells, hydrochloride, read-out: Hypoxic radiosensitizing potency: C1.6",40 µM
same,maximum SER value,[3],equal to OER
same,therapeutic index relative to NLA-1,[3]; in vitro ThI,better therapeutic index than NLA-1
same,"Therapeutic index (ThI): IC50/A,1h /C1.6","[3]; in vitro, V79 cells",about 15
same,inhibition of Topo II-induced decatenation of kinetoplast DNA,human Topo II,did not inhibit the action of Topoisomerase II on kinetoplast DNA
"Cl.O=[N+]([O-])c1nccn1CCCNc1c2c(nc3ccccc13)CCCC2 [THNLA-1, 9-[3-(2-nitro-1-imidazolyl)propylamino]-1,2,3,4-tetrahydroacridine hydrochloride]",effect on mobility of supercoiled DNA,supercoiled DNA,do not affect the mobility of supercoiled DNA
same,IC50,[1]; [4],~33 µM
same,IC90,"[1]; Cricetulus griseus, V79, hypoxic, 1 hour, 37° C., read-out: concentration to achieve a 10% survival fraction, hypoxic",~100 µM
same,viability at 100 µM,"[1]; V79, aerobic, read-out: survival fraction, aerobic",~50%
same,viability at 100 µM,"[1]; V79, hypoxic, read-out: survival fraction, hypoxic",< 0.002%
same,IC50 at 1 h,[2],~360 µM
same,IC90 at 1 h,"[2]; read-out: concentration to achieve a 10% survival fraction, aerobic",~475 µM
same,Topo I-dependent single-stranded DNA cleavage,calf thymus Topo I,not observed
same,IC100,calf thymus Topo I; read-out: complete inhibition of Topo I not observed up to,> 1000 µM
same,IC50,calf thymus Topo I,~600 µM and 600 µM
same,inhibition of Topo I-induced relaxation,calf thymus Topo I; supercoiled DNA,"inhibits Topo I-induced relaxation of supercoiled DNA, but at significantly higher concentrations than NLA-type compounds"
same,concentration at which inhibition of Topo I starts,calf thymus Topo I; supercoiled DNA relaxation,100 µM
same,radiosensitization of hypoxic V79 cells,"[3]; 1 hour at 37° C. before irradiation, hypoxic",Significant radiosensitization
same,EC (SER 1.6),"[3]; Cricetulus griseus, 1 h, concentration yielding an SER of 1.6, hypoxic V79 cells, read-out: Hypoxic radiosensitizing potency: C1.6",19 µM
same,EC (SER 1.6),"[3]; Cricetulus griseus, hypoxic radiosensitization, V79 cells (tables), read-out: Intracellular concentration at C1.6: C1.6i",443 µM
same,EC (SER 1.6),"[3]; Cricetulus griseus, hypoxic radiosensitization, V79 cells, read-out: Intracellular concentration for an SER of 1.6: C1.6i",443 µM
same,radiosensitization when administered immediately after irradiation,"[3]; V79 cells (hypoxic conditions), hydrochloride",radiosensitization also was not observed; also recorded: No radiosensitization was observed
same,radiosensitization under aerobic conditions,"[3]; V79 cells, aerobic",Radiosensitization was not observed
same,radioprotection under aerobic conditions,[3]; aerobic,no radioprotection occurred
same,maximum SER value,[3],3.1
same,inhibition of Topo II-induced decatenation of kinetoplast DNA,human Topo II; hydrochloride,does not inhibit the Topo II-induced decatenation of KDNA even at very high concentrations; also recorded: did not inhibit decatenation of kinetoplast DNA
